Laboratory results as given in US20240122865A1, “Methods of Protecting RNA” (Pfizer Inc., priority 2021, published 2024).

Columns and labels:
Assay type in all cases: biochemical, Trichoderma atroviride
[1] = tested on: FgenL model RNA; experiment: TapeStation Assay, FgenL model RNA; set-up: Conc. FgenL#1 / Conc. FgenL#2: unit not given here; conditions: for % Control N = 1 / % Control N = 2 / % Control Average: FgenL RNA, 20 mM amino acids, 50 mM CAPS pH 11, 50° C. 15 min; for % Control N = 1 / % Control N = 2: vs Time 0; for % Control Average: vs Time 0, Avg N=2; for Conc. FgenL#1 / Conc. FgenL#2: intact FgenL RNA after 15 min at 50° C.; for Conc. FgenL#1: 20 mM amino acids in 50 mM CAPS pH 11, run #1; for Conc. FgenL#2: 20 mM amino acids in 50 mM CAPS pH 11, run #2
Outline: (§1)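 Chi18 or FgenL model RNA at 50 ng/μL in 50 mM CAPS pH 11 was mixed with amino acids (stocks in CAPS, readjusted to >pH 11) and heated at 50° C for 0 or 15 minutes; time-0 samples stayed on ice. Intact RNA was measured by capillary electrophoresis with optical detection and compared with a no-degradation baseline.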

[2] = biological target: Chi18 model RNA; experiment: Droplet Digital Polymerase Chain Reaction (ddPCR) Assay, Chi18; conditions: percent protection, pH 11.0, 30° C., 16 hours, n = 2
Outline: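 Chi18 (25 fg/μL) or FgenL (10 fg/μL) RNA at pH 11.0 incubated 16 h with amino acids (10-point half-log series, ~300 mM top stock in CAPS), at 30° C or 44° C respectively. Intact RNA reverse-transcribed, ddPCR 5′-positive droplet fraction taken as protection; EC50 from four-parameter logistic fit.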

[3] = tested on: FgenL mRNA construct; experiment: Size Exclusion Base Hydrolysis Degradation Assay, FgenL; conditions: 25 mM amino acid; for T0 R1 peak area at 250 nm: FgenL 0.1 mg/mL, 50 mM CAPS, T=0, replicate 1; for T2 Avg, peak area as percentage of T=0 / T2 R1 peak area at 250 nm / T10 Avg, peak area as percentage of T=0 / T10 R1 peak area at 250 nm / T24 Avg, peak area as percentage of T=0 / T24 R1 peak area at 250 nm / T0 Avg, peak area as percentage of T=0: FgenL; for T2 Avg, peak area as percentage of T=0 / T2 R1 peak area at 250 nm / T10 Avg, peak area as percentage of T=0 / T10 R1 peak area at 250 nm / T24 Avg, peak area as percentage of T=0 / T24 R1 peak area at 250 nm: 50 mM CAPS pH 11, room temperature; for T2 Avg, peak area as percentage of T=0 / T2 R1 peak area at 250 nm: 2 hrs; for T2 R1 peak area at 250 nm / T10 R1 peak area at 250 nm / T24 R1 peak area at 250 nm: replicate 1; for T10 Avg, peak area as percentage of T=0 / T10 R1 peak area at 250 nm: 10 hrs; for T24 Avg, peak area as percentage of T=0 / T24 R1 peak area at 250 nm: 24 hrs; for T0 Avg, peak area as percentage of T=0: T=0 (reference)
Outline: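 mRNA (diluted to 1.0 mg/mL) preincubated 1 h with amino acid, then brought to pH 11 with CAPS and NaOH at room temperature. Intact mRNA quantified by size-exclusion UPLC, peak area at 250 nm in the T=0 elution window, expressed as percentage of T=0 at 2, 10 and 24 hrs.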

[4] = tested on: Chi18 model RNA; experiment: TapeStation Assay, Chi18 model RNA; set-up: Conc. chi18#1 / Conc. chi18#2: unit not given here; conditions: for % Control N = 1 / % Control N = 2 / % Control Avg.: Chi18 RNA, 20 mM amino acids, 50 mM CAPS pH 11, 50° C. 15 min; for % Control N = 1 / % Control N = 2: vs Time 0; for % Control Avg.: vs Time 0, Avg N=2; for Conc. chi18#1: 20 mM amino acids in 50 mM CAPS pH 11, run #1
Outline: as §1

[5] = tested on: FgenL model RNA; conditions: percent protection, pH 11.0, 44° C., 16 hours, n = 2
[6] = intact Chi18 RNA after 15 min at 50° C.

| Structure (SMILES) | % Control N = 1 [1] [%] | % Control N = 2 [1] [%] | % Control Average [1] [%] | Conc. FgenL#1 [1] | Conc. FgenL#2 [1] | EC50 [2] [mM] | T0 R1 peak area at 250 nm [3] | T2 Avg, peak area as percentage of T=0 [3] [%] | T2 R1 peak area at 250 nm [3] | T10 Avg, peak area as percentage of T=0 [3] [%] | T10 R1 peak area at 250 nm [3] | T24 Avg, peak area as percentage of T=0 [3] [%] | T24 R1 peak area at 250 nm [3] | T0 Avg, peak area as percentage of T=0 [3] [%] | % Control N = 1 [4] [%] | % Control N = 2 [4] [%] | % Control Avg. [4] [%] | Conc. chi18#1 [4, 6] | Conc. chi18#2 ([4]; intact Chi18 RNA after 15 min at 50° C., 20 mM amino acids in 50 mM CAPS pH 11, run #2) | EC50 [5] [mM] |
| --- | --- | --- | --- | --- | --- | --- | --- | --- | --- | --- | --- | --- | --- | --- | --- | --- | --- | --- | --- | --- |
| C[C@@H](O)[C@H](N)C(=O)O [Threonine] | 49.3 | 34.6 | 41.9 | 17 | 12 | > 30 | 17711 | 47.3 | 8436 | 2.6 | 904 | 0.0 | 0 | 100.0 | 51.4 | 40.8 | 46.1 | 27.4 | 21.6 | > 30 |
| N[C@@H](Cc1c[nH]c2ccccc12)C(=O)O [Tryptophan] | 3.5 | 1.5 | 2.5 | 1.21 | 0.51 | > 30 | 15191 | 30.2 | 4991 | 0.0 | 0 | 0.0 | 0 | 100.0 | 2.9 | 2.9 | 2.9 | 1.57 | – | > 30 |
| N[C@@H](Cc1ccc(O)cc1)C(=O)O [Tyrosine] | 33.9 | 21.9 | 27.9 | 11.7 | 7.59 | > 30 | 22082 | 64.7 | 13039 | 15.0 | 1912 | 5.6 | 912 | 100.0 | 31.9 | 31.9 | 31.9 | 17 | – | > 30 |
| CC(C)[C@H](N)C(=O)O [Valine] | 25.4 | 18.4 | 21.9 | 8.77 | 6.38 | > 30 | 17745 | 22.8 | 4305 | 0.0 | 0 | 0.0 | 0 | 100.0 | 32.5 | 32.5 | 32.5 | 17.3 | – | > 30 |
